Columns and labels:
[1] = tested on: E. coli UT5600; experiment: Minimal Inhibitory Concentration (MIC) of Na3As04, wild type E. coli UT5600; format: cell-based, Escherichia coli; details: Na3As04 0-50 mM, 28° C., 48 h, OD600
Method: (§1) Panel C illustrates the comparison between the growth levels of E. coli wild type and recombinant cells in the presence of different concentrations of Na3As04 ranging from 0-50 mM. After incubation at 28° C. for 48 h, the bacterial growth was measured by reading the absorbance at 600 nm (OD600) in a spectrophotometer.
(§2) To find out whether the recombinant E. coli UT5600/pCM-As lineage had increased resistance to arsenate ions, as compared to the UT5600 lineage from which it is derived, the MIC against Na3As04 of each of the lineages was determined.
(§3) The final bacterial growth in different Na3As04 concentrations was quantified by Absorbance reading at 600 ηm (FIG. 10C). The assays were performed in triplicate, showing similar results.

[2] = tested on: E. coli UT5600/pCM-As; experiment: Minimal Inhibitory Concentration (MIC) of Na3As04, recombinant E. coli UT5600/pCM-As; format: cell-based, Escherichia coli; details: Na3As04 0-50 mM, 28° C., 48 h, OD600
Method: as §1, §2, §3

[3] = tested on: C. metallidurans CH34; experiment: Minimal Inhibitory Concentration (MIC) of Na3As04, wild type C. metallidurans CH34; format: cell-based, Cupriavidus metallidurans; details: Na3As04 0-1,000 mM, 28° C., 48 h, OD600
Method: After incubation at 28° C. for 48 h, the bacterial growth was measured by reading the absorbance at 600 nm (OD600) in a spectrophotometer.
The MIC of C. metallidurans CH34 and C. metallidurans CH34/pCM-As cells against As5+ ions were also studied. […] The MIC of Na3As04 for C. metallidurans CH34/pCM-As was above 1,000 mM, indicating an increase in survivability to As5+ ions above 100% (FIG. 11B). The bacterial growth for the MIC assays was quantified by Absorbance reading at 600 nm (FIG. 11C). The assays were performed in triplicate, showing similar results.

Substance: sodium arsenate [Na3As04]
- Minimum Inhibitory Concentration (MIC) [1]: 25 mM
- Minimum Inhibitory Concentration (MIC) [2]: 50 mM
- Minimum Inhibitory Concentration (MIC) [3]: 500 mM
